In patent publication US6162417A, “Pyrrolo isoquinolines” (Emory University, priority 1998, dated 2000):
“Also recorded” adds a separate entry of the source. Read-outs that look alike come from different tables or passages of the source.

Legend:
[1] = target: T1, human dopamine transporter (Homo sapiens, UniProt Q01959); test: Binding site inhibition in MDCK cell membranes transfected with human dopamine transporter ([3H]WIN 35428)
T1 construct: expressed in transfected cells; host or cells: MDCK (dog kidney) cells, stably transfected
T1 sequence (Q01959 whole entry): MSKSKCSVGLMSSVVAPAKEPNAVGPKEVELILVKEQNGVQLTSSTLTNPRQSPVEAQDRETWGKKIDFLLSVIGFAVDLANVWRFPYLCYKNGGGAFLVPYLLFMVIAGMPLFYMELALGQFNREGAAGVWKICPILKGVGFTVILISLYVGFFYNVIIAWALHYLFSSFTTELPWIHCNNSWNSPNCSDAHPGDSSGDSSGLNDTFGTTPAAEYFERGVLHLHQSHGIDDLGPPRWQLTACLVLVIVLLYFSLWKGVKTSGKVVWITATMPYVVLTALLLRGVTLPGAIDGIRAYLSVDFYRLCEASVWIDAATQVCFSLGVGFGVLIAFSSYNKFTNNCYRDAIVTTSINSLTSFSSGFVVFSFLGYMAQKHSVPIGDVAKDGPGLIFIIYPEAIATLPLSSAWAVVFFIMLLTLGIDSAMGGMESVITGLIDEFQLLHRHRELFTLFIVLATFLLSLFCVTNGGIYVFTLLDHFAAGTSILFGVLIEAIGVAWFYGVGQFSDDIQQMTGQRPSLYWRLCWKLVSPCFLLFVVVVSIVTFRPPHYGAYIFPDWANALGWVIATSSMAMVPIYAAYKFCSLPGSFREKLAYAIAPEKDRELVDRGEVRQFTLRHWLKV

[2] = target: T2, human norepinephrine transporter (Homo sapiens, UniProt P23975); test: Binding site inhibition in HEK-293 cell membranes transfected with human norepinephrine transporter ([3H]Nisoxetine); conditions: HEK-293 cells, human NE transporter; vs. [3H]Nisoxetine
T2 construct: expressed in transfected cells; host or cells: HEK-293, stably transfected
T2 sequence (P23975 whole entry): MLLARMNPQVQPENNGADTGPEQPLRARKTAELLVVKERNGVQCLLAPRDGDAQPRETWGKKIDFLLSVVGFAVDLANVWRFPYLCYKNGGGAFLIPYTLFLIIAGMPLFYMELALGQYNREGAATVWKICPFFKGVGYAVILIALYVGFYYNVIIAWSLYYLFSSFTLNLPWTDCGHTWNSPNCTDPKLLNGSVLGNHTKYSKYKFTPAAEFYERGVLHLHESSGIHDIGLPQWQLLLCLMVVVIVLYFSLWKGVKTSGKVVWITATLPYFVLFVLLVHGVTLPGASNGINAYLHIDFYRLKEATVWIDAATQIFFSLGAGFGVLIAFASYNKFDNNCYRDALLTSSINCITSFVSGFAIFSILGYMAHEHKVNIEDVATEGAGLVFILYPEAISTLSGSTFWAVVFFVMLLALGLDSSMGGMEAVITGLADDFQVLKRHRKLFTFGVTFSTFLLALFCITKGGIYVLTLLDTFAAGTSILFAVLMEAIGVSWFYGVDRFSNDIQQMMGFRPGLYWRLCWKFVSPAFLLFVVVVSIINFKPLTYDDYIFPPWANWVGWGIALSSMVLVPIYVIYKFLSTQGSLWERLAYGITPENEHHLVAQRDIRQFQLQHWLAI
Excerpt: ^2 [^3 H]Nisoxetine as reference/control for norepinephrine

[3] = target: T3, human serotonin transporter (Homo sapiens, UniProt P31645); test: Binding site inhibition in HEK-293 cell membranes transfected with human serotonin transporter ([3H]Citalopram); conditions: for in vitro affinity/selectivity for transporter sites: human transporters, Table 3
T3 construct: expressed in transfected cells; host or cells: HEK-293, stably transfected
T3 sequence (P31645 whole entry): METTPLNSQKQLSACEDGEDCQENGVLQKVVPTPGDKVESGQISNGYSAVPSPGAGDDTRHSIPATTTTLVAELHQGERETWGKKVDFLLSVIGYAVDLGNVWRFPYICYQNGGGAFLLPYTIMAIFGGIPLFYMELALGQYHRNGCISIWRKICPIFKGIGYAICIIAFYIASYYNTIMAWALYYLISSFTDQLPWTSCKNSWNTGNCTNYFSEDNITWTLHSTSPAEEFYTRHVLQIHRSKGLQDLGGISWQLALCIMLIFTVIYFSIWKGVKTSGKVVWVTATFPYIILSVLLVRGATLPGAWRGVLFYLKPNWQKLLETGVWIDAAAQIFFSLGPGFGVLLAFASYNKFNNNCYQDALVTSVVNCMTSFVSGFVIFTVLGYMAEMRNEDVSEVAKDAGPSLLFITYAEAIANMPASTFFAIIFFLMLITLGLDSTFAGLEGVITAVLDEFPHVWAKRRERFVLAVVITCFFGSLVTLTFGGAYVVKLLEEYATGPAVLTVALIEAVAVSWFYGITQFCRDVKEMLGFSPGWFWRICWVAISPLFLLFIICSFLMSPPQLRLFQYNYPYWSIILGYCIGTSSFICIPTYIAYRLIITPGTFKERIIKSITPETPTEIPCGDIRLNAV

serotonin transporter [4] = target: T4, serotonin transporter (Rattus norvegicus, UniProt P31652); test: Transporter binding site inhibition in rat brain striatal and cortical membranes - serotonin transporter ([3H]citalopram); conditions: for in vitro affinity/selectivity for the serotonin transporter: rat membranes, Table 2
T4 construct: in rat cortical and striatal homogenates; from tissue; host or cells: rat brain, striatal and cortical homogenates/membranes
T4 sequence (P31652 whole entry): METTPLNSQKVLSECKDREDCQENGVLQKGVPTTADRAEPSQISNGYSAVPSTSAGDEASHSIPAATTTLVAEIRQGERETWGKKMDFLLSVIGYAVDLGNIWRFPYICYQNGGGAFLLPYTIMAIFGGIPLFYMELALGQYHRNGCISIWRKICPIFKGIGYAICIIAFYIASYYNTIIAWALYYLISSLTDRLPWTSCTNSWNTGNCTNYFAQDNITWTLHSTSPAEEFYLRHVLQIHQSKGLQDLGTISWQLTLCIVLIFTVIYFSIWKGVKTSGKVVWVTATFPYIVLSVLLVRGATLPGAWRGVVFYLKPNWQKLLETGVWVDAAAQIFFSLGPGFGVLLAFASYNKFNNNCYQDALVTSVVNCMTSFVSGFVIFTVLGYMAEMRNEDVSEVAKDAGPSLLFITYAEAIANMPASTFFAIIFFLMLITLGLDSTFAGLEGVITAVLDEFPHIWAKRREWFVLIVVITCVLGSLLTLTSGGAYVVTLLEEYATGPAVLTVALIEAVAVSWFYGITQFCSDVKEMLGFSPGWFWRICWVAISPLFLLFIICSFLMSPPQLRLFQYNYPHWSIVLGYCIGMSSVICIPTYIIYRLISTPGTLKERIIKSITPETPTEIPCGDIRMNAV
Excerpt: (§1) Transporter Binding Site Inhibition Data for Various
(§2) Ligands in Rat Brain Striatial and Cortical Membranes

[5] = target: T5, norepinephrine transporter (Rattus norvegicus, UniProt Q63380); test: Transporter binding site inhibition in rat brain striatal and cortical membranes - norepinephrine transporter ([3H]desmethylimipramine); conditions: vs. [3H]desmethylimipramine, read-out: NE Ki
T5 construct: in rat cortical and striatal homogenates; from tissue; host or cells: rat brain, striatal and cortical homogenates/membranes
T5 sequence (Q63380 1-617): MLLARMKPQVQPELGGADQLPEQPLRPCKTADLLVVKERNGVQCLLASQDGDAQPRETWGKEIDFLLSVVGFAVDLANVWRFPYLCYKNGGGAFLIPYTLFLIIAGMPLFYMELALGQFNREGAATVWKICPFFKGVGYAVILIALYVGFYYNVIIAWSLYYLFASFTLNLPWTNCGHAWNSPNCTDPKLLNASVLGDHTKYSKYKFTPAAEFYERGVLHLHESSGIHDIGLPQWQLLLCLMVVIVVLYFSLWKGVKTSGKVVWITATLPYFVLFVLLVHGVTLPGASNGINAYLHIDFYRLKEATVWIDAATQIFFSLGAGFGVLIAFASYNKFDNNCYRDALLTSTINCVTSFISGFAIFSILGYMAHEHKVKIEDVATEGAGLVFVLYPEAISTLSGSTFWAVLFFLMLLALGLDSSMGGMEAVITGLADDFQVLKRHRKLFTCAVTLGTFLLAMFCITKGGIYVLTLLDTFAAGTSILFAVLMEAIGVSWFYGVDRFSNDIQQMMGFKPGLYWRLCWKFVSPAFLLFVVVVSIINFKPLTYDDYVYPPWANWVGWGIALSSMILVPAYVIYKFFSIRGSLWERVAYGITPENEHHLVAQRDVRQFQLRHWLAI
Excerpt: as §1, §2

dopamine transporter = target: T6, dopamine transporter (Rattus norvegicus, UniProt P23977); test: Transporter binding site inhibition in rat brain striatal and cortical membranes - dopamine transporter ([3H]WIN 35428)
T6 construct: in rat cortical and striatal homogenates; from tissue; host or cells: rat brain, striatal and cortical homogenates/membranes
T6 sequence (P23977 whole entry): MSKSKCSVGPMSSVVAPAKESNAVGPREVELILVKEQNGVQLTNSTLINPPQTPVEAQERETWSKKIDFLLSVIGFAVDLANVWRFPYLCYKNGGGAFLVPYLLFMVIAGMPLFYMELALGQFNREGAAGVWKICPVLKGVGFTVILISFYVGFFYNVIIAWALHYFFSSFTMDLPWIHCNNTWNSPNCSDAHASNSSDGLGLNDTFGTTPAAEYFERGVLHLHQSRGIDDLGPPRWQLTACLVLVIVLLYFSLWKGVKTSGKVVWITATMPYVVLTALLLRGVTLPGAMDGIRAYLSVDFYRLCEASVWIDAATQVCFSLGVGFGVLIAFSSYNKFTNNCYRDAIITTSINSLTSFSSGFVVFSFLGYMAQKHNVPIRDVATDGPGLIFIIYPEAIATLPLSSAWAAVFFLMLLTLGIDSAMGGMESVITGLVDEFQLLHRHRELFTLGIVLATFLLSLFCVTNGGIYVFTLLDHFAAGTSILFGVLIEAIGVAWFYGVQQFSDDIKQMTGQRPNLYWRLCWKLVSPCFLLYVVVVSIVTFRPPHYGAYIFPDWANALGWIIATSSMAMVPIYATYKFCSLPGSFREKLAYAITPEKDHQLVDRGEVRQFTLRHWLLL
Excerpt: as §1, §2

serotonin transporter [6] = conditions: carbon-11 label; cited from earlier work
[7] = MDCK cells, human DA transporter, vs. [3H]WIN 35428, read-out: DA Ki
[8] = HEK-293 cells, human serotonin transporter, vs. [3H]Citalopram, read-out: 5-HT Ki
[9] = rat striatal/cortical membranes, vs. [3H]citalopram, read-out: 5-HT Ki
[10] = rat striatal/cortical membranes, vs. [3H]WIN 35428, read-out: DA Ki

SMILES	Ki [1, 7]	Ki [2]	Ki [3, 8]	in vitro affinity/selectivity for transporter sites [3]	in vitro affinity/selectivity for the serotonin transporter (serotonin transporter [4])	Ki [3]	further results
Brc1ccc([C@@H]2CN3CCC[C@@H]3c3ccccc32)cc1 (relative stereo) [racemic Br]	0.07 nM	2.3 nM	0.68 nM	–	–	–	–
COC(=O)[C@H]1[C@@H](c2ccc(I)cc2)C[C@@H]2CC[C@H]1N2C [RTI-55 (CIT), reference compound]	–	38.9 nM	0.67 nM	high affinity for both serotonin and dopamine transporter sites, and is selective for these two sites versus norepinephrine transporter site	–	–	Ki [1]: 0.47 nM
Ic1ccc([C@@H]2CN3CCC[C@@H]3c3ccccc32)cc1 (relative stereo) [compound 6, trans-1,2,3,5,6,10b-hexahydro-6-[4-iodophenyl]pyrrolo-[2,1-a]isoquinoline]	0.9 nM	10 nM	–	high affinity for both serotonin and dopamine transporter sites, and is selective for these two sites versus norepinephrine transporter site	high in vitro affinity and good selectivity for the serotonin transporter	0.9 nM	Ki (serotonin transporter [4]; [9]): 2.3 nM; Ki [5]: 961 nM; Ki (dopamine transporter; [10]): 14 nM
Ic1ccc([C@@H]2CN3CCC[C@@H]3c3ccccc32)cc1 [compound 6, trans (95% ee) (6S, 10bR), (+)-(6S, 10bR)-1,2,3,5,6,10b-hexahydro-6-(4'-iodophenyl)pyrrolo[2,1-a]isoquinoline]	0.9 nM	10 nM	–	–	–	0.9 nM	–
[11CH3]Sc1ccc([C@H]2CN3CCC[C@H]3c3ccccc32)cc1 [Carbon-11 McN-5652Z]	–	–	–	–	–	–	accumulation in brain regions (serotonin transporter [6]): greatest accumulation in brain regions rich in serotoninergic neurons
Brc1ccc([C@@H]2CN3CCC[C@@H]3c3ccccc32)cc1 (relative stereo) [compound 5, trans-1,2,3,5,6,10b-hexahydro-6-[4-bromophenyl]pyrrolo-[2,1-a]isoquinoline]	–	–	–	–	high in vitro affinity for the serotonin transporter	–	Ki (serotonin transporter [4]; [9]): 5.1 nM; Ki [5]: 2390 nM; Ki (dopamine transporter; [10]): 9.6 nM
Fc1cccc2c1[C@H]1CCCN1C[C@H]2c1ccc(Br)cc1 (relative stereo) [racemic Br, X = F at position 10]	0.15 nM	5 nM	1.6 nM	–	–	–	affinity and selectivity for the dopamine transporter ([1]; human transporters, Table 3): high affinity and selectivity for the dopamine transporter
FC/C=C\c1ccc([C@@H]2CN3CCC[C@@H]3c3ccccc32)cc1 (relative stereo) [compound 19, trans-1,2,3,5,6,10b-hexahydro-6-[4'Z-(3-fluoro-1-propenyl)phenyl]pyrrolo-[2,1-a]isoquinoline]	220 nM	–	–	high selectivity and affinity for serotonin transporter sites, compared with dopamine transporter site; also recorded: more selective than McN-5652Z for the serotonin transporter site, compared to the dopamine transporter site; also recorded: very high and equal affinity for the serotonin transporter site	high affinity for and the most selectivity for the serotonin transporter	1 nM	Ki (serotonin transporter [4]): 2.8 nM; Ki (dopamine transporter): 221 nM
FCC#Cc1ccc([C@@H]2CN3CCC[C@@H]3c3ccccc32)cc1 (relative stereo) [racemic C=CCH2 F]	11.3 nM	24 nM	8.6 nM	–	–	–	–
